Test system: ATDC5 cells
Assay: Chondrogenesis activity assay in ATDC5 cells (collagen type II induction, immunofluorescence)
Assay type: cell-based, mouse
Conditions: Mus musculus; for EC50: collagen type II induction in ATDC5 cells, concentration reaching 50% of maximum induction; for Emax: maximum percent induction of collagen type II relative to internal reference compound at 10 μM, ATDC5 cells
Method: A) Chondrogenesis Activity Assay in ATDC5 Cells
The chondrogenic potential of the compounds of the invention was determined using clonal mouse chondrogenic ATDC5 cells (T. Atsumi et al., Cell Differ. Dev. 1990, 30, 109-116). ATDC5 cells are derived from mouse embryonic AT805 teratocarcinoma cells and are used frequently to study the multistep chondrogenic differentiation process from precursor cells into chondrocytes (C. Shukunami et al., Exp. Cell Res. 1998, 241, 1-11; H. Aklyami et al., J. Bone Miner. Res. 1996, 11, 22-28; H. Akiyami et al., Biochem. Biophys. Res. Commun. 1997, 235, 142-147; C. Shukunami et al., J. Cell Biol. 1996, 133, 457-468; C. Shukunami et al., J. Bone Miner. Res. 1997, 12, 1174-1188). Undifferentiated ATDC5 cells grow in vitro until confluence, showing a fibroblast-like morphology. In the presence of insulin, cells undergo transient condensation and form numerous nodular structures (cartilage nodules). The cartilagenous nature of these nodules was shown by Alcian Blue staining as evidence of the production of proteoglycan (aggrecan) and collagen type II expression (by expression analysis), both molecular markers of chondrocytes (C. Shukunami et al., J. Cell Biol. 1996, 133, 457-468).
Chondrogenic differentiation of ATDC5 cells into chondrocytes by the compounds of the invention was determined by measuring the induction of type II collagen protein as a marker of chondrocytes, a structural component of the extracellular matrix which constitutes more than 80% of cartilage mass (D. R. Eyre, Clin. Orthop. Relat. Res. 2004, 427 Suppl, S118-S122). ATDC5 cells were obtained from RIKEN and cultured as monolayer in basal culture medium (Dulbecco's Modified Eagle Medium/Nutrient Mixture F-12 (DMEM/F12, Invitrogen, #31331-093) supplemented with 10 μg/ml Transferrin (Roche, #10652 202001), 3×10E−8 M sodium seienite (Sigma, #S-5261) and 5% Fetal Calf Serum (FCS Gold, PAA, #A15-251)), at 37° C., and 5% CO2 in plastic flasks of 75 cm^2 or 300 cm^2 subconfluently for propagation. ATDC5 cells were harvested and resuspended in differentiation culture medium that consisted of basal culture medium complemented with 10 μg/ml insulin (Sigma, #19278), to initiate chondrogenic differentiation. For studying the effect of test compounds, the ATDC5 cells were plated in 96-well plates (3.0×10E4 cells per well in 200 μl of differentiation culture medium). Test compounds dissolved in DMSO were added to yield increasing compound concentrations, typically from 40 nM to 10 μM, and a final DMSO concentration of 0.1%. On each 96-well plate, control wells containing no test compound but the same concentration of DMSO, i.e. untreated cells, were included and used as reference for the determination of the effect of the test compounds on the cells, and wells containing an internal reference compound at a concentration of 10 μM were included and used as positive control and for standardizing the results. Cells in the wells were incubated for 4 days at 37° C., and 5% CO2, followed by quantification of intracellular collagen type II.
Quantification of collagen type II in the ATDC5-cells was done by immunofluorescence staining of collagen type II, and fluorescence intensity was measured using a cellular high content imaging system (ImageXpress, Molecular Device). For immunofluorescence staining of intracellular collagen, medium was removed after compound incubation and cells were fixed with 200 μl/well methanol/water (95%/5%). Cells were permeabilized in 200 μl/well phosphate-buffered saline (PBS) containing 0.2% Triton X100 for 15 min and, after removal of the solution, blocked for 30 min with 200 μl/well PBS/0.2% Triton X100 containing 1% bovine serum albumin (BSA) to avoid unspecific binding. After the blocking step, the solution was removed and collagen type II staining solution was added. […]

EC50	Compound	Emax
3500 nM	COc1ccc(-c2cc(Cl)cc3c2[nH]c2c(C)nccc23)c(C)n1 [Example 104, 6-Chloro-8-(6-methoxy-2-methyl-pyridin-3-yl)-1-methyl-9H-pyrido[3,4-b]indole]	> 80%
850 nM	Cc1nccc2c1[nH]c1c(-c3ccc(N4CCOCC4)nc3)cc(Cl)cc12 [Example 96, 6-Chloro-1-methyl-8-(6-morpholin-4-yl-pyridin-3-yl)-9H-pyrido[3,4-b]indole]	50 to 80%
> 10000 nM	FC(F)(F)Cn1c2cnccc2c2cc(Cl)cc(-c3ccc(N4CCCCC4)nc3)c21 [Example 89, 6-Chloro-8-(3,4,5,6-tetrahydro-2H-[1,2′]bipyridinyl-5′-yl)-9-(2,2,2-trifluoro-ethyl)-9H-pyrido[3,4-b]indole]	> 80%
640 nM	COc1ccc(-c2cc(Br)cc3c2[nH]c2c(C)nccc23)cc1 [Example 188, 6-Bromo-8-(4-methoxy-phenyl)-1-methyl-9H-pyrido[3,4-b]indole]	> 80%
> 3300 nM	CCc1cc2c([nH]c3c(-c4ccc(OC)cc4)cc(Br)cc32)c(C)n1 [Example 211, 6-Bromo-3-ethyl-8-(4-methoxy-phenyl)-1-methyl-9H-pyrido[3,4-b]indole]	< 20%
1000 nM	CCc1nccc2c1[nH]c1c(-c3ccc(Cl)nc3Cl)cc(Cl)cc12 [Example 105, 6-Chloro-8-(2,6-dichloro-pyridin-3-yl)-1-ethyl-9H-pyrido[3,4-b]indole]	50 to 80%
840 nM	CCn1c2c(-c3ccc(OC)cc3)cc(Cl)cc2c2ccnc(C)c21 [Example 147, 6-Chloro-9-ethyl-8-(4-methoxy-phenyl)-1-methyl-9H-pyrido[3,4-b]indole]	> 80%
1900 nM	FC(F)(F)Cn1c2cnccc2c2cc(Cl)cc(-c3cnn(CC4CC4)c3)c21 [Example 173, 6-Chloro-8-(1-cyclopropylmethyl-1H-pyrazol-4-yl)-9-(2,2,2-trifluoro-ethyl)-9H-pyrido[3,4-b]indole]	> 80%
> 10000 nM	Clc1cc(-c2cncnc2)c2[nH]c3cnccc3c2c1 [Example 141, 6-Chloro-8-pyrimidin-5-yl-9H-pyrido[3,4-b]indole]	< 20%
580 nM	FC(F)(F)Cn1c2cnccc2c2cc(Cl)cc(-c3cn[nH]c3)c21 [Example 144, 6-Chloro-8-(1H-pyrazol-4-yl)-9-(2,2,2-trifluoro-ethyl)-9H-pyrido[3,4-b]indole]	< 20%
1500 nM	CCn1c2c(-c3ccc(OC)nc3)cc(Cl)cc2c2ccnc(C)c21 [Example 91, 6-Chloro-9-ethyl-8-(6-methoxy-pyridin-3-yl)-1-methyl-9H-pyrido[3,4-b]indole]	> 80%
190 nM	CCn1c2c(-c3ccc(OCCN4CCOCC4)cc3)cc(Cl)cc2c2ccnc(C)c21 [Example 28, 6-Chloro-9-ethyl-1-methyl-8-[4-(2-morpholin-4-yl-ethoxy)-phenyl]-9H-pyrido[3,4-b]indole]	> 80%
170 nM	Cc1nccc2c1[nH]c1c(-c3cccc(OCc4nccs4)c3)cc(Cl)cc12 [Example 273, 6-Chloro-1-methyl-8-[3-(thiazol-2-ylmethoxy)-phenyl]-9H-pyrido[3,4-b]indole]	< 20%
> 3300 nM	CCn1c2c(-c3cccc(CN4CCOCC4)c3)cc(Cl)cc2c2ccnc(C)c21 [Example 254, 6-Chloro-9-ethyl-1-methyl-8-(3-morpholin-4-ylmethyl-phenyl)-9H-pyrido[3,4-b]indole]	< 20%
> 10000 nM	CC(C)n1cc(-c2cc(Cl)cc3c4ccncc4n(CC(F)(F)F)c23)cn1 [Example 160, 6-Chloro-8-(1-isopropyl-1H-pyrazol-4-yl)-9-(2,2,2-trifluoro-ethyl)-9H-pyrido[3,4-b]indole]	< 20%
5800 nM	COc1ccc(-c2cc(Cl)cc3c2[nH]c2cnccc23)cn1 [Example 72, 6-Chloro-8-(6-methoxy-pyridin-3-yl)-9H-pyrido[3,4-b]indole]	20 to 50%
1800 nM	Clc1cc(-c2ccc(Cl)nc2)c2c(c1)c1ccncc1n2CC1CCC1 [Example 279, 6-Chloro-8-(6-chloro-pyridin-3-yl)-9-cyclobutylmethyl-9H-pyrido[3,4-b]indole]	20 to 50%

Second part, the compound before the results:

Compound	EC50	Emax
Cc1nccc2c1[nH]c1c(-c3ccc(Cl)cc3)cc(Cl)cc12 [Example 189, 6-Chloro-8-(4-chloro-phenyl)-1-methyl-9H-pyrido[3,4-b]indole]	500 nM	> 80%
CCn1c2c(-c3cnc4[nH]ccc4c3)cc(Cl)cc2c2ccnc(C)c21 [Example 92, 6-Chloro-9-ethyl-1-methyl-8-(1H-pyrrolo[2,3-b]pyridin-5-yl)-9H-pyrido[3,4-b]indole]	2500 nM	> 80%
CC(C)c1nccc2c1[nH]c1c(-c3ccc(Cl)nc3Cl)cc(Cl)cc12 [Example 106, 6-Chloro-8-(2,6-dichloro-pyridin-3-yl)-1-isopropyl-9H-pyrido[3,4-b]indole]	> 10000 nM	20 to 50%
Cc1nc(Br)cc2c1[nH]c1c(-c3ccc(OCCn4cc(Br)cn4)cc3)cc(Cl)cc12 [Example 43, 3-Bromo-8-(4-[2-(4-bromo-pyrazol-1-yl)-ethoxy]-phenyl)-6-chloro-1-methyl-9H-pyrido[3,4-b]indole]	> 6600 nM	< 20%
Clc1ccc(-c2cc(Cl)cc3c4ccncc4n(CC4CC4)c23)cc1 [Example 291, 6-Chloro-8-(4-chloro-phenyl)-9-cyclopropylmethyl-9H-pyrido[3,4-b]indole]	1700 nM	50 to 80%
CCn1c2cnccc2c2cc(Cl)cc(-c3ccc(Cl)cc3)c21 [Example 131, 6-Chloro-8-(4-chloro-phenyl)-9-ethyl-9H-pyrido[3,4-b]indole]	780 nM	> 80%
Cn1ccc(-c2cc(Cl)cc3c4ccncc4n(CC(F)(F)F)c23)c1 [Example 165, 6-Chloro-8-(1-methyl-1H-pyrrol-3-yl)-9-(2,2,2-trifluoro-ethyl)-9H-pyrido[3,4-b]indole]	> 10000 nM	< 20%
Cc1nccc2c3cc(Cl)cc(-c4cccnc4Cl)c3n(CC3CC3)c12 [Example 284, 6-Chloro-8-(2-chloro-pyridin-3-yl)-9-cyclopropylmethyl-1-methyl-9H-pyrido[3,4-b]indole]	4200 nM	< 20%
CC(C)Cn1cc(-c2cc(Cl)cc3c4ccncc4n(CC(F)(F)F)c23)cn1 [Example 137, 6-Chloro-8-(1-isobutyl-1H-pyrazol-4-yl)-9-(2,2,2-trifluoro-ethyl)-9H-pyrido[3,4-b]indole]	1400 nM	20 to 50%
Cc1nccc2c3cc(Cl)cc(-c4cncnc4)c3n(CC3CC3)c12 [Example 281, 6-Chloro-9-cyclopropylmethyl-1-methyl-8-pyrimidin-5-yl-9H-pyrido[3,4-b]indole]	110 nM	< 20%
Cc1nccc2c1[nH]c1c(-c3cccnc3)cc(Cl)cc12 [Example 65, 6-Chloro-1-methyl-8-pyridin-3-yl-9H-pyrido[3,4-b]indole]	2300 nM	20 to 50%
N#CCn1c2cnccc2c2cc(Cl)cc(-c3ccc(Cl)nc3Cl)c21 [Example 4, 2-(6-Chloro-8-(2,6-dichloropyridin-3-yl)-9H-pyrido[3,4-b]indol-9-yl)acetonitrile]	830 nM	> 80%

— US12275733B2, “Substituted pyrido[3,4-b]indoles for the treatment of cartilage disorders” (Sanofi, priority 2016, dated 2025)
